Patent US6759399B1, “Use of antimineralocorticoid compounds against narcotic withdrawal syndrome” (Aventis Pharma S.A., priority 1995, dated 2004)
Values joined by “and” are separate entries in the source; they are usually repeats but may differ in a detail not shown here. Equal entries are not always repeated.

How the values were obtained:
[1] = test system: self-administration of cocaine in rats; test: Dependence induced by cocaine: self-administration of cocaine in trained rats; type: in vivo; conditions: 1 hour before session
Experimental: The anti-mineralocorticoid product AM2 was tested on 5 rats which were trained in the self-administration of cocaine during daily periods of one hour.
These rats were pre-treated 1 hour before the start of the self-administration sessions.
The product AM2 dissolved in a saline solution was administered by intra-peritoneal route. The doses range from 10 to 100 mg/kg.

[2] = test system: morphinic withdrawal syndrome induced by naloxone in mice; test: Withdrawal syndrome induced by naloxone in mice treated with morphine (jumping test); conditions: for % protection: relative to the morphine group
[3] = antimineralocorticoid alone 4 × 10 mg/kg p.o., no morphine, naloxone 100 mg/kg i.p.
[4] = antimineralocorticoid alone 4 × 20 mg/kg p.o., no morphine, naloxone 100 mg/kg i.p.
[5] = morphine 799 mg/kg s.c. + antimineralocorticoid 4 × 10 mg/kg p.o., naloxone 100 mg/kg i.p.
[6] = morphine 799 mg/kg s.c. + antimineralocorticoid 4 × 10 mg/kg p.o.
[7] = morphine 799 mg/kg s.c. + antimineralocorticoid 4 × 20 mg/kg p.o., naloxone 100 mg/kg i.p.
[8] = morphine 799 mg/kg s.c. + antimineralocorticoid 4 × 20 mg/kg p.o.

| SMILES | effect on the self-administration of cocaine ([1]; pre-treatment with 10 or 20 mg/kg intra-peritoneal) | effect on the self-administration of cocaine ([1]; pre-treatment with 50 or 75 mg/kg intra-peritoneal) | Number of jumps/10 minutes (m ± sem) [2, 3] [jumps/10 minutes] | Number of jumps/10 minutes (m ± sem) [2, 4] [jumps/10 minutes] | Number of jumps/10 minutes (m ± sem) ([2]; antimineralocorticoid alone 4 × 50 mg/kg p.o., no morphine, naloxone 100 mg/kg i.p.) [jumps/10 minutes] | Number of jumps/10 minutes (m ± sem) [2, 5] [jumps/10 minutes] | % protection [2, 6] [%] | Number of jumps/10 minutes (m ± sem) [2, 7] [jumps/10 minutes] | % protection [2, 8] [%] | Number of jumps/10 minutes (m ± sem) ([2]; morphine 799 mg/kg s.c. + antimineralocorticoid 4 × 50 mg/kg p.o., naloxone 100 mg/kg i.p.) [jumps/10 minutes] | % protection ([2]; morphine 799 mg/kg s.c. + antimineralocorticoid 4 × 50 mg/kg p.o.) [%] | Number of jumps/10 minutes (m ± sem) ([2]; morphine alone 799 mg/kg s.c. (cumulative over 4 days), naloxone 100 mg/kg i.p. on day 4) |
| --- | --- | --- | --- | --- | --- | --- | --- | --- | --- | --- | --- | --- |
| CCC[C@@H]1CC2=CC(=O)CC[C@]2(C)[C@H]2CC[C@@]3(C)[C@@H](CC[C@@]3(O)CCC(=O)[O-])[C@H]12.[K+] [AM2, potassium 17β-hydroxy 3-oxo 7α-propyl-(17α)-pregn-4-ene-21-carboxylate] | little or no effect | significant reduction | 2 ± 2 | 4 ± 4 | 3 ± 2 | 76 ± 16 | −25 | 51 ± 8 | −48 | 61 ± 8 | −40 |  |
| CC(=O)S[C@@H]1CC2=CC(=O)CC[C@]2(C)[C@H]2CC[C@@]3(C)[C@@H](CC[C@@]34CCC(=O)O4)[C@H]12 [AM1, γ-lactone of 7α-acetylthio-17β-hydroxy-3-oxo-17α-pregn-4-ene-21-carboxylic acid] |  |  | 3 ± 2 | 11 ± 4 |  | 51 ± 7 | −33 | 77 ± 8 | −32 |  |  |  |
| CN1CC[C@]23c4c5ccc(O)c4O[C@H]2[C@@H](O)C=C[C@H]3[C@H]1C5 [Morphine, morphine] |  |  |  |  |  |  |  |  |  |  |  | 114 ± 8 jumps/10 minutes and 76 ± 15 jumps/10 minutes and 102 ± 10 jumps/10 minutes and 99 ± 13 jumps/10 minutes |
